Consider 5 molecules from US20250213512A1, “TRANSDERMAL ANALGESIC FORMULATION” (MEAT & LIVESTOCK AUSTRALIA LTD, priority 2017, published 2025).

The nature of data set [1]: Optimising the candidate formulations: excipient effects on ketoprofen movement through cattle skin in vitro.
The conditions of data set [2]: treated vs untreated cattle.
Procedure: Blood samples were analysed for cortisol and biomarkers once the study was completed.
A preliminary analysis of the proteins identified was undertaken using Principal Component Analysis (PCA) within the MarkerView software package (FIG. 21). This analysis looked at a comparison of groups for all time points (FIG. 21a), a comparison of dehorning vs. sham (FIG. 21b) and a comparison of treatment vs. placebo (FIG. 21c).
Data set [3] can be described thus: Clinical study (disbudding): behaviour ethogram, mixed effect Poisson / negative binomial models. As to conditions: dehorned calves.
Procedure: Calf behaviour was monitored before and after dehoming in suitable time periods. The day before dehoming, the behaviour of all 36 calves were monitored for two hours to record the baseline variation, which was taken as 0 hour observation. Next day after dehoming, behaviour was recorded at 2-4 hour, 4-8 hour, 8-12 hour, 24 hour and 48 hours. There were 12 behaviour parameters recorded, as follows: Head shaking, Ear flicking, Tail wagging. Head rubbing, lying, ruminating, neck extending, grooming, walking, vocalising, feeding and drinking.
The method used to identify those variables was Confirmatory Factor Analysis (CFA) within Structural Equation Modelling Framework (SEM).
Separate models were used for each of the observed animal behavioural traits (FIG. 19). A mixed effect Poisson model with an animal fitted as random intercepts and time as random slope, and unstructured error term for the residuals. Behaviours trait at baseline (time 0) was centred and added to the fixed effect part of the model (essentially turning the model into a random slope model too). […] Overdispersed models (also those with excess zeros) were refitted using a negative binomial model.
Experimental time was fitted as a categorical variable to derive estimated at each time point, time 2 hr was used as the reference category. Treatment was also fitted as categorical variable, placebo as reference category. […]
Data set [4] is described as follows: Solubility / precipitation of NSAIDs in the vehicles tested. As to conditions: vehicles screened.
Data set [5] in a line: Screening of NSAID and vehicle combinations: penetration through cattle skin in vitro (Table 13). The procedure: Hair was removed using an electric clipper and the subcutaneous fat and musculature carefully trimmed away before the skin was cut into circular sections (approximately 2 cm diameter) using a metal wad punch, and placed in airtight ziplock bags, stored at −20° C. within 5 hr of slaughter.
The skin samples were defrosted immediately prior to use and mounted on Franz diffusion cells. […] A glass cover slip was applied to each donor chamber to prevent evaporation of the donor solution. Samples (200 μL) were collected at regular intervals from the receptor chambers via the sampling port and immediately replenished with equal volumes of fresh receptor solution. At the completion of each study, the diffusions cells were dismantled and the skin discs were rinsed and stored.

Setting [6] is: 10% Tolfenamic acid, vehicle KET67 (Eucalyptus oil, 70% 1,8-cineole), sample time 4 hrs.
The mark [7] stands for this setting: 10% Tolfenamic acid, vehicle KET67 (Eucalyptus oil, 70% 1,8-cineole), sample time 6 hrs.
[8] abbreviates: 10% Tolfenamic acid, vehicle KET67 (Eucalyptus oil, 70% 1,8-cineole), sample time 8 hrs.
[9] abbreviates: 10% Tolfenamic acid, vehicle KET68 (propylene glycol, 100% PPG), sample time 4 hrs.
The mark [10] stands for this setting: Tolfenamic acid 10% in vehicle KET51: Ethanol 70% EthOH, Propylene glycol 30% PPG, terpene None, 0.1M citrate, sample time 6 hrs.
Where [11] appears, read: Tolfenamic acid 10% in vehicle KET51: Ethanol 70% EthOH, Propylene glycol 30% PPG, terpene None, 0.1M citrate, sample time 8 hrs.
[12] abbreviates: Tolfenamic acid 10% in vehicle KET52: Ethanol 70% EthOH, Propylene glycol 30% PPG, Menthol 50 mg/mL, 0.1M citrate, sample time 0.5 hrs.
The mark [13] stands for this setting: Tolfenamic acid 10% in vehicle KET52: Ethanol 70% EthOH, Propylene glycol 30% PPG, Menthol 50 mg/mL, 0.1M citrate, sample time 2 hrs.
Setting [14] is: Tolfenamic acid 10% in vehicle KET52: Ethanol 70% EthOH, Propylene glycol 30% PPG, Menthol 50 mg/mL, 0.1M citrate, sample time 4 hrs.
Where [15] appears, read: Tolfenamic acid 10% in vehicle KET52: Ethanol 70% EthOH, Propylene glycol 30% PPG, Menthol 50 mg/mL, 0.1M citrate, sample time 6 hrs.
Setting [16] is: Tolfenamic acid 10% in vehicle KET52: Ethanol 70% EthOH, Propylene glycol 30% PPG, Menthol 50 mg/mL, 0.1M citrate, sample time 8 hrs.
The mark [17] stands for this setting: Tolfenamic acid 50%, vehicle KET39: Ethanol 50% EthOH, no co-solvent, Menthol 50 mg/mL, sample time 0.5 hrs, replicates 1-3.
The mark [18] stands for this setting: Tolfenamic acid 50%, vehicle KET39: Ethanol 50% EthOH, no co-solvent, Menthol 50 mg/mL, sample time 2 hrs, replicates 1-3.
Where [19] appears, read: Tolfenamic acid 50%, vehicle KET39: Ethanol 50% EthOH, no co-solvent, Menthol 50 mg/mL, sample time 4 hrs, replicates 1-3.
Setting [20] is: Vehicle KET52: 70% EthOH, 30% PPG (propylene glycol), Menthol 50 mg/mL, 0.1M citrate, drug conc 10%, sample time 0.5 hrs.
Where [21] appears, read: Vehicle KET52: 70% EthOH, 30% PPG (propylene glycol), Menthol 50 mg/mL, 0.1M citrate, drug conc 10%, sample time 8 hrs.
Setting [22] is: Vehicle KET53: 70% EthOH, 30% OA (oleyl alcohol), no terpene, 0.1M citrate, drug conc 10%, sample time 0.5 hrs.
[23] abbreviates: Vehicle KET53: 70% EthOH, 30% OA (oleyl alcohol), no terpene, 0.1M citrate, drug conc 10%, sample time 8 hrs.
[24] abbreviates: Vehicle KET54: 100% SRArl (Superfine Arlasolve), 0.1M citrate, drug conc 10%, sample time 6 hrs.

Several values for one entry are separate records, joined by “and”; a condition that tells them apart may be missing. Equal values may be shown once.

Regarding `CCO` [Ethanol, ethanol], the “effect of excipient on ketoprofen/NSAID penetration through cattle skin” value in data set [1] is reported as “significantly enhanced penetration compared to other alcohols”.

Take `CCCCCCCCCCCCCC(=O)OC(C)C` [IPM, isopropyl myristate]: the “effect of excipient on ketoprofen/NSAID penetration through cattle skin” value in data set [1] is “proving the more effective”.

`CC(C)O` [isopropanol]: the “effect of excipient on ketoprofen/NSAID penetration through cattle skin” value in data set [1] is recorded as “did not perform as well as ethanol”.

As for `CC(C(=O)O)c1cccc(C(=O)c2ccccc2)c1` (centres unmarked) [ketoprofen], the “effect on key biomarkers of pain and inflammation” value in data set [2] was “significantly affected key biomarkers of pain and inflammation”. Moreover, in data set [3], the “head shaking compared with the placebo group” value was “significantly different from the placebo group”.

In the case of `Cc1c(Cl)cccc1Nc1ccccc1C(=O)O` [tolfenamic acid], the solubility in vehicles result in data set [4] was “not particularly soluble in most of the vehicles tested”; in data set [4] (listed as Tolfenamic acid) it was “poorly soluble in almost every vehicle tested”. The analysis conc in data set [5] (10% Tolfenamic acid, vehicle KET66 (50% Ethanol, Eucalyptus oil 21% 1,8-cineole, 0.1M citrate), sample time 0.5 hrs) is 0.004; in data set [5] (10% Tolfenamic acid, vehicle KET67 (Eucalyptus oil, 70% 1,8-cineole), sample time 0.5 hrs) it was 0.005 and 0.003; in data set [5] (setting [6]), 0.01 and 0.005; in data set [5] (setting [7]) it was 0.006 and 0.005 and 0.008; in data set [5] (setting [8]), 0.006 and 0.005 and 0.004; in data set [5] (10% Tolfenamic acid, vehicle KET68 (propylene glycol, 100% PPG), sample time 0.5 hrs) it was 0.002. The analysis conc was 0.007 and 0.004 in data set [5] (setting [9]); 0.002 in data set [5] (10% Tolfenamic acid, vehicle KET68 (propylene glycol, 100% PPG), sample time 6 hrs); 0.011 and 0.01 in data set [5] (Tolfenamic acid 10% in vehicle KET51: Ethanol 70% EthOH, Propylene glycol 30% PPG, terpene None, 0.1M citrate, sample time 2 hrs); 0.004 and 0.003 in data set [5] (Tolfenamic acid 10% in vehicle KET51: Ethanol 70% EthOH, Propylene glycol 30% PPG, terpene None, 0.1M citrate, sample time 4 hrs); 0.004 and 0.005 in data set [5] (setting [10]); 0.006 and 0.005 and 0.004 in data set [5] (setting [11]). In addition, the analysis conc in data set [5] (setting [12]) was 0.003; in data set [5] (setting [13]) it was 0.004 and 0.002; in data set [5] (setting [14]) it was 0.003; in data set [5] (setting [15]), 0.002; in data set [5] (setting [16]), 0.004; in data set [5] (setting [17]), 0.006. The analysis conc was 0.009 in data set [5] (setting [18]); 0.004 in data set [5] (setting [19]); 0.002 in data set [5] (setting [20]); 0.004 in data set [5] (Vehicle KET52: 70% EthOH, 30% PPG (propylene glycol), Menthol 50 mg/mL, 0.1M citrate, drug conc 10%, sample time 4 hrs); 0.003 in data set [5] (Vehicle KET52: 70% EthOH, 30% PPG (propylene glycol), Menthol 50 mg/mL, 0.1M citrate, drug conc 10%, sample time 6 hrs); 0.007 and 0.004 in data set [5] (setting [21]). For the same molecule, the analysis conc is 0.002 in data set [5] (setting [22]); 0.005 in data set [5] (Vehicle KET53: 70% EthOH, 30% OA (oleyl alcohol), no terpene, 0.1M citrate, drug conc 10%, sample time 2 hrs); 0.047 and 0.08 and 0.04 in data set [5] (setting [23]); 0.002 in data set [5] (Vehicle KET54: 100% SRArl (Superfine Arlasolve), 0.1M citrate, drug conc 10%, sample time 0.5 hrs); 0.003 and 0.002 and 0.004 in data set [5] (setting [24]). In addition, the Concentration was 0.03 µg/mL and 0.015 µg/mL in data set [5] (setting [6]); 0.018 µg/mL and 0.015 µg/mL and 0.024 µg/mL in data set [5] (setting [7]); 0.018 µg/mL and 0.015 µg/mL and 0.012 µg/mL in data set [5] (setting [8]); 0.021 µg/mL and 0.012 µg/mL in data set [5] (setting [9]); 0.012 µg/mL and 0.015 µg/mL in data set [5] (setting [10]); 0.018 µg/mL and 0.015 µg/mL and 0.012 µg/mL in data set [5] (setting [11]). Further, the “Concentration” value in data set [5] (setting [12]) was 0.009 µg/mL; in data set [5] (setting [13]), 0.012 µg/mL and 0.006 µg/mL; in data set [5] (setting [14]) it was 0.009 µg/mL; in data set [5] (setting [15]), 0.006 µg/mL; in data set [5] (setting [16]), 0.012 µg/mL; in data set [5] (Tolfenamic acid 50%, vehicle KET34: Ethanol 70% EthOH, no co-solvent, Menthol 50 mg/mL, sample time 0.5 hrs, replicates 1-3), 0 µg/mL. For the same molecule, the Concentration was 0 µg/mL in data set [5] (Tolfenamic acid 50%, vehicle KET34: Ethanol 70% EthOH, no co-solvent, Menthol 50 mg/mL, sample time 2 hrs, replicates 1-3); 0 µg/mL in data set [5] (Tolfenamic acid 50%, vehicle KET34: Ethanol 70% EthOH, no co-solvent, Menthol 50 mg/mL, sample time 4 hrs, replicates 1-3); 0 µg/mL in data set [5] (Tolfenamic acid 50%, vehicle KET34: Ethanol 70% EthOH, no co-solvent, Menthol 50 mg/mL, sample time 6 hrs, replicates 1-3); 0 µg/mL in data set [5] (Tolfenamic acid 50%, vehicle KET34: Ethanol 70% EthOH, no co-solvent, Menthol 50 mg/mL, sample time 8 hrs, replicates 1-3); 0 μg/mL (2×) and 0.018 μg/mL in data set [5] (setting [17]); 0 μg/mL (2×) and 0.027 μg/mL in data set [5] (setting [18]). The Concentration in data set [5] (setting [19]) is 0.012 μg/mL and 0 μg/mL (2×); in data set [5] (Tolfenamic acid 50%, vehicle KET39: Ethanol 50% EthOH, no co-solvent, Menthol 50 mg/mL, sample time 6 hrs, replicates 1-3) it was 0 µg/mL; in data set [5] (Tolfenamic acid 50%, vehicle KET39: Ethanol 50% EthOH, no co-solvent, Menthol 50 mg/mL, sample time 8 hrs, replicates 1-3), 0 µg/mL; in data set [5] (setting [20]), 0.006 µg/mL; in data set [5] (Vehicle KET52: 70% EthOH, 30% PPG (propylene glycol), Menthol 50 mg/mL, 0.1M citrate, drug conc 10%, sample time 2 hrs), 0 µg/mL; in data set [5] (setting [21]) it was 0.021 µg/mL and 0.012 µg/mL. Moreover, the Concentration in data set [5] (setting [22]) was 0.006 µg/mL; in data set [5] (setting [23]), 0.141 µg/mL and 0.24 µg/mL and 0.12 µg/mL; in data set [5] (Vehicle KET54: 100% SRArl (Superfine Arlasolve), 0.1M citrate, drug conc 10%, sample time 2 hrs), 0 µg/mL; in data set [5] (Vehicle KET54: 100% SRArl (Superfine Arlasolve), 0.1M citrate, drug conc 10%, sample time 4 hrs), 0 µg/mL; in data set [5] (setting [24]) it was 0.009 µg/mL and 0.006 µg/mL.
